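A five-concentration, 48-hour dose response in 96-well plates underlies each endpoint, interpolated linearly between surrounding concentrations. GI50: concentration for 50% inhibition of growth. The concentration for full growth arrest is given as TGI.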
Columns and labels:
Experiment in all cases: NCI anticancer screen, dose series, 48 h
[1] = tested on: 786-0 renal
[2] = tested on: A498 renal
[3] = tested on: A549 NSCLC
[4] = tested on: ACHN renal
[5] = tested on: BT-549 breast
[6] = tested on: CAKI-1 renal
[7] = tested on: CCRF-CEM leukemia
[8] = tested on: COLO 205 colon
[9] = tested on: DU-145 prostate
[10] = tested on: EKVX NSCLC
[11] = tested on: HCC-2998 colon
[12] = tested on: HCT-116 colon
[13] = tested on: HCT-15 colon
[14] = tested on: HL-60(TB) leukemia
[15] = tested on: HOP-62 NSCLC
[16] = tested on: HOP-92 NSCLC
[17] = tested on: HS 578T breast
[18] = tested on: HT29 colon
[19] = tested on: IGROV1 ovarian
[20] = tested on: K-562 leukemia
[21] = tested on: KM12 colon
[22] = tested on: LOX IMVI melanoma
[23] = tested on: M14 melanoma
[24] = tested on: MALME-3M melanoma
[25] = tested on: MCF7 breast
[26] = tested on: MDA-MB-231 breast
[27] = tested on: MDA-MB-435
[28] = tested on: MOLT-4 leukemia
[29] = tested on: NCI-H226 lung
[30] = tested on: NCI-H23 lung
[31] = tested on: NCI-H460 lung
[32] = tested on: NCI-H522 lung
[33] = tested on: NCI/ADR-RES ovarian
[34] = tested on: OVCAR-3 ovarian
[35] = tested on: OVCAR-4 ovarian
[36] = tested on: OVCAR-5 ovarian
[37] = tested on: OVCAR-8 ovarian
[38] = tested on: PC-3 prostate
[39] = tested on: RPMI-8226 leukemia
[40] = tested on: RXF 393 renal
[41] = tested on: SF-268 CNS
[42] = tested on: SF-295 CNS
[43] = tested on: SF-539 CNS
[44] = tested on: SK-MEL-2 melanoma
[45] = tested on: SK-MEL-28 melanoma
[46] = tested on: SK-MEL-5 melanoma
[47] = tested on: SK-OV-3 ovarian
[48] = tested on: SN12C renal
[49] = tested on: SNB-19 CNS
[50] = tested on: SNB-75 CNS
[51] = tested on: SR leukemia
[52] = tested on: SW-620 colon
[53] = tested on: T-47D breast
[54] = tested on: TK-10 renal
[55] = tested on: U251 CNS
[56] = tested on: UACC-257 melanoma
[57] = tested on: UACC-62 melanoma
[58] = tested on: UO-31 renal

Work on `Oc1ccc(Cc2ccc(O)c(C3CC(c4ccc(Cl)cc4)=NN3)c2)cc1C1CC(c2ccc(Cl)cc2)=NN1` (stereo unspecified) yielded a GI50 [1] of 3.53 µM, a TGI [1] greater than 40.2 µM and a GI50 [2] of 0.59 µM. The TGI [2] was greater than 34.3 µM, the GI50 [3] was 2.79 µM and the TGI [3] was greater than 100 µM. For the same compound, the GI50 [4] was 3.1 µM, the TGI [4] was greater than 31.8 µM and the GI50 [5] was 4.19 µM. For the same compound, the TGI [5] was 23.3 µM, the GI50 [6] was 3.19 µM and the TGI [6] was greater than 58.4 µM. It also gave a GI50 [7] of 1.94 µM, a TGI [7] greater than 100 µM and a GI50 [8] of 4.17 µM. For the same compound, the TGI [8] was 23.9 µM, the GI50 [9] was 3.22 µM and the TGI [9] was greater than 100 µM. For the same compound, the GI50 [10] was 3.2 µM, the TGI [10] was greater than 100 µM and the GI50 [11] was 3.71 µM. It also gave a TGI [11] greater than 30.8 µM, a GI50 [12] of 1.72 µM and a TGI [12] of 5.59 µM. It also gave a GI50 [13] of 2.26 µM, a TGI [13] greater than 35.8 µM and a GI50 [14] of 2.73 µM. It also gave a TGI [14] greater than 100 µM, a GI50 [15] of 3.81 µM and a TGI [15] greater than 45.2 µM. The GI50 [16] was 3.39 µM, the TGI [16] was 20.9 µM and the GI50 [17] was 2.48 µM. For the same compound, the TGI [17] was 24.8 µM, the GI50 [18] was 6.41 µM and the TGI [18] was greater than 44.6 µM. The GI50 [19] was 3.69 µM, the TGI [19] was greater than 72.3 µM and the GI50 [20] was 2.51 µM. The TGI [20] was greater than 100 µM, the GI50 [21] was 3.34 µM and the TGI [21] was greater than 67.8 µM. It also gave a GI50 [22] of 2.22 µM, a TGI [22] of 12 µM and a GI50 [23] of 3.93 µM. It also gave a TGI [23] greater than 39.3 µM, a GI50 [24] of 5.03 µM and a TGI [24] greater than 100 µM. The GI50 [25] was 3.04 µM, the TGI [25] was greater than 100 µM and the GI50 [26] was 2.49 µM. It also gave a TGI [26] of 8.94 µM, a GI50 [27] of 3.23 µM and a TGI [27] of 20.2 µM. For the same compound, the GI50 [28] was 2.84 µM, the TGI [28] was greater than 100 µM and the GI50 [29] was 4.29 µM. For the same compound, the TGI [29] was greater than 44.3 µM, the GI50 [30] was 3.07 µM and the TGI [30] was greater than 37.1 µM. It also gave a GI50 [31] of 2.19 µM, a TGI [31] of 8.87 µM and a GI50 [32] of 2.56 µM. For the same compound, the TGI [32] was 9.88 µM, the GI50 [33] was 2.54 µM and the TGI [33] was greater than 34.5 µM. The GI50 [34] was 2.71 µM, the TGI [34] was 16.5 µM and the GI50 [35] was 2.97 µM. It also gave a TGI [35] greater than 44.6 µM, a GI50 [36] of 4.45 µM and a TGI [36] greater than 35.7 µM. The GI50 [37] was 2.87 µM, the TGI [37] was greater than 42.4 µM and the GI50 [38] was 3.67 µM. It also gave a TGI [38] greater than 100 µM, a GI50 [39] of 3.89 µM and a TGI [39] greater than 100 µM. For the same compound, the GI50 [40] was 3.48 µM, the TGI [40] was greater than 38.8 µM and the GI50 [41] was 3.32 µM. The TGI [41] was 27.2 µM, the GI50 [42] was 2.39 µM and the TGI [42] was greater than 42.9 µM. For the same compound, the GI50 [43] was 4.69 µM, the TGI [43] was greater than 40.2 µM and the GI50 [44] was 2.96 µM. The TGI [44] was 10.5 µM, the GI50 [45] was 5.74 µM and the TGI [45] was greater than 49.9 µM. It also gave a GI50 [46] of 2.81 µM, a TGI [46] of 11.5 µM and a GI50 [47] of 3.61 µM. The TGI [47] was greater than 100 µM, the GI50 [48] was 2.79 µM and the TGI [48] was greater than 37.3 µM. The GI50 [49] was 3.65 µM, the TGI [49] was greater than 43.6 µM and the GI50 [50] was 3.7 µM. The TGI [50] was greater than 82.3 µM, the GI50 [51] was 2.77 µM and the TGI [51] was greater than 100 µM. The GI50 [52] was 3.23 µM, the TGI [52] was 16 µM and the GI50 [53] was 3.15 µM. For the same compound, the TGI [53] was greater than 39.7 µM, the GI50 [54] was 4.79 µM and the TGI [54] was greater than 100 µM. It also gave a GI50 [55] of 2.06 µM, a TGI [55] of 33.6 µM and a GI50 [56] of 3.1 µM. For the same compound, the TGI [56] was 19.2 µM, the GI50 [57] was 3.14 µM and the TGI [57] was 13.4 µM. For the same compound, the GI50 [58] was 3.07 µM and the TGI [58] was greater than 100 µM.
